Assay results: patent US12441733B2, “Substituted 2,4-dioxotetrahydropyrimidines as intermediates in the synthesis of bruton's tyrosine kinase inhibitors” (Novartis AG, priority 2018, dated 2025)

Target: T1, BTK-GFP (Homo sapiens, UniProt Q06187+Q96SW2)
T1 construct: expressed in transfected cells; host or cells: HEK293A (Invitrogen R70507), lentiviral transduction with pLenti6-BTK-GFP-Ires-RFP, blasticidin selection
Assay: BTK-GFP protein abundance flow cytometry assay in HEK293A cells
Assay type: cell-based
Details: HEK293A BTK-GFP-iresRFP cells, 24 h; for DC50: GFP signal by flow cytometry, concentration at which 50% maximal degradation was observed; for BTK deg Amax: % protein remaining at the concentration at which maximum degradation is seen
Outline: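 HEK293A cells stably expressing bicistronic BTK-GFP-IRES-RFP (C-terminal GFP tag) via lentiviral vector. Degradation read by flow cytometry as loss of GFP signal after degrader treatment. DC50 is concentration giving 50% maximal degradation; Amax is % protein remaining at maximal degradation.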

T1 sequence (Q06187 whole entry): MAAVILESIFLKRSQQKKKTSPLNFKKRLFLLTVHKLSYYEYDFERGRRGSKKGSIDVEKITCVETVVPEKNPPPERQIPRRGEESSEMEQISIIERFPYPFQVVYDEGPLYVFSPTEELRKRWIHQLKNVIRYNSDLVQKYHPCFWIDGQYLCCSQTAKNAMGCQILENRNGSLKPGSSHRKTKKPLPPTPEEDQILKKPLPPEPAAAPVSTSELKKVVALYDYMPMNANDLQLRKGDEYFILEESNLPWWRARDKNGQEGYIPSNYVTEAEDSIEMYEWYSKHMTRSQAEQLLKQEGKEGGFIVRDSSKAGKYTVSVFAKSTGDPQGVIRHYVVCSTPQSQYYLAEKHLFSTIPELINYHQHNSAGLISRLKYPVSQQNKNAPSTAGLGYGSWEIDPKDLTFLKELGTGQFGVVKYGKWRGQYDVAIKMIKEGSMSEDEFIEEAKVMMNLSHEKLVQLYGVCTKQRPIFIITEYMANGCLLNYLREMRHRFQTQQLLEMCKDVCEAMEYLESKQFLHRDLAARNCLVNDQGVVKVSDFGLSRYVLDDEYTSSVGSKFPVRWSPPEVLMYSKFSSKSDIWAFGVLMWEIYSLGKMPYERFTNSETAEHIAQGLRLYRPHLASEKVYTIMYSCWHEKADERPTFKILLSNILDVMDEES
T1 sequence (Q96SW2 whole entry): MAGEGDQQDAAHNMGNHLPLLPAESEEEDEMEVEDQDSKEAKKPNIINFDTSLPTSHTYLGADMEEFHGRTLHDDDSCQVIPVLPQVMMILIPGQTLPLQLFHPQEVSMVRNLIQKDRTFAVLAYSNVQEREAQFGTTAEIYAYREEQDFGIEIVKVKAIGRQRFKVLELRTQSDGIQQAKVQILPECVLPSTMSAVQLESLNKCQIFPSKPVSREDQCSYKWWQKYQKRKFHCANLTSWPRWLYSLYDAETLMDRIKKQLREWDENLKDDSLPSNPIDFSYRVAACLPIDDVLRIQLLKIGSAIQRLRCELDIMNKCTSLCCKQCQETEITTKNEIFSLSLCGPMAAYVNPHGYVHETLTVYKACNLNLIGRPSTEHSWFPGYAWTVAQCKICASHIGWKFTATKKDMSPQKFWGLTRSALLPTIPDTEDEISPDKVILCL
T1 sequence (Q16531 whole entry partner): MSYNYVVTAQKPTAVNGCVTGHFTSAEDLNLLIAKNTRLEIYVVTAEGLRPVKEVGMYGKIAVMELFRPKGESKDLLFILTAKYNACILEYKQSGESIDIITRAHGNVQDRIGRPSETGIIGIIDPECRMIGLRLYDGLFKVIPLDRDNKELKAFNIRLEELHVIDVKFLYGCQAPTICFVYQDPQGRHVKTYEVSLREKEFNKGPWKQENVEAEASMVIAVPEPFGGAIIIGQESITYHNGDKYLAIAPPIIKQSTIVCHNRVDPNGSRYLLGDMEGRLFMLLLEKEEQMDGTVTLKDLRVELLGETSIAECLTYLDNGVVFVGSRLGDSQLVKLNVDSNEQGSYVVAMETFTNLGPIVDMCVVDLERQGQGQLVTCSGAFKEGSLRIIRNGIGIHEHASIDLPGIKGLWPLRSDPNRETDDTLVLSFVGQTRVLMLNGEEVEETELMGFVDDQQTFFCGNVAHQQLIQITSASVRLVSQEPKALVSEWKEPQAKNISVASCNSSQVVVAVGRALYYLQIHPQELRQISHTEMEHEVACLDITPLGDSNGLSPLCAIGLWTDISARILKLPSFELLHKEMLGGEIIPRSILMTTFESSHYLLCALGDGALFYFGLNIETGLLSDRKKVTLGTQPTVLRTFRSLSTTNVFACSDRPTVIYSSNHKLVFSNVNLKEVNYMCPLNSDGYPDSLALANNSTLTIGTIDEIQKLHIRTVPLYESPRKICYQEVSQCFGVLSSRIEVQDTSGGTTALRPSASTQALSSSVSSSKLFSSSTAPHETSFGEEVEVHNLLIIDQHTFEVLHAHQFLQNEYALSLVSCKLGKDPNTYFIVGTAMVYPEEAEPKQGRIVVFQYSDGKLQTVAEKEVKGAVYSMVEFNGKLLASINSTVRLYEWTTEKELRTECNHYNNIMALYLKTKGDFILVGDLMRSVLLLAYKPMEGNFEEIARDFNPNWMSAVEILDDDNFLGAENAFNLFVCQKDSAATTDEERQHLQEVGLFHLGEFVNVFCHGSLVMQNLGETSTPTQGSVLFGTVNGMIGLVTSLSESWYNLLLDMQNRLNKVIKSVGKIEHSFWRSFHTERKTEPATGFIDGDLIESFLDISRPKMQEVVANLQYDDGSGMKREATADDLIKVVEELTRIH

Structure (SMILES)	DC50 [nM]	BTK deg Amax [%]
COc1ccc(C(=O)N2CCN(CCCCNCc3ccc(-c4cc5c(-c6cc(F)cc(NC(=O)c7ccc(C(C)(C)O)cc7F)c6C)ncnc5[nH]4)cc3)CC2)cc1N1CCC(=O)NC1=O [Compound 40, N-(3-(6-(4-(((4-(4-(3-(2,4-dioxotetrahydropyrimidin-1(2H)-yl)-4-methoxybenzoyl)piperazin-1-yl)butyl)amino)methyl)phenyl)-7H-pyrrolo[2,3-d]pyrimidin-4-yl)-5-fluoro-2-methylphenyl)-2-fluoro-4-(2-hydroxypropan-2-yl)benzamide]	53.2	4.6
COc1ccc(C(=O)NCCN2CCC3(CC2)CCN(Cc2ccc(-c4cc5c(-c6cc(F)cc(NC(=O)c7ccc(C(C)(C)O)cc7F)c6C)ncnc5[nH]4)cc2)CC3)cc1N1CCC(=O)NC1=O [Compound 44, N-(3-(6-(4-((9-(2-(3-(2,4-dioxotetrahydropyrimidin-1(2H)-yl)-4-methoxybenzamido)ethyl)-3,9-diazaspiro[5.5]undecan-3-yl)methyl)phenyl)-7H-pyrrolo[2,3-d]pyrimidin-4-yl)-5-fluoro-2-methylphenyl)-2-fluoro-4-(2-hydroxypropan-2-yl)benzamide]	235	48.4
Cc1c(NC(=O)c2ccc(C(C)(C)O)cc2F)cc(F)cc1-c1ncnc2[nH]c(-c3ccc(CCN4CCC5(CC4)CCN(C(=O)c4ccc(F)c(N6CCC(=O)NC6=O)c4)CC5)cc3)cc12 [Compound 47, N-(3-(6-(4-(2-(9-(3-(2,4-dioxotetrahydropyrimidin-1(2H)-yl)-4-fluorobenzoyl)-3,9-diazaspiro[5.5]undecan-3-yl)ethyl)phenyl)-7H-pyrrolo[2,3-d]pyrimidin-4-yl)-5-fluoro-2-methylphenyl)-2-fluoro-4-(2-hydroxypropan-2-yl)benzamide]	2.2	6.7
